Format in all cases: cell-based
For assay [1], the system named is polymorphonuclear leucocytes (PMNL). Briefly: Test 1: Release of proteolytic activity from human PMNL. The settings on record: Homo sapiens, PMNL, read-out: Test 1 residual activity (release of proteolytic activity), percent of control. The gist of the method:
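Human peripheral-blood PMNL (5·10^6 cells/ml in PBS with 7.5 mM glucose) preincubated 20 min at 37° C. with compound, then primed with cytochalasin B (5 μg/ml) and TNF (30 ng/ml), and stimulated with fMLP (10 nmol/l) for 60 min. Released protease in supernatant read with methoxysuccinyl-nitroanilide substrate at 405 nm over 0-60 min, pH 7.5.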

Assay [2] concerns leukotriene B4 synthesis in white blood cells. Briefly: Test 3: LTB4 formation by white blood cells. Conditions: Homo sapiens, read-out: Test 3 residual activity (LTB4 formation), percent of control. The method in brief: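 Human blood leukocytes (dextran sedimentation, 10^7 cells/ml) preincubated 15 min at 37 °C with compound plus CaCl2/MgCl2, then stimulated with A23187/glutathione for 5 min at 37 °C. LTB4 in supernatant quantified by reversed-phase HPLC with UV at 280 nm; residual activity given as percent of control at stated μM concentration.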

The test system of assay [3] is IL-6 release from mononuclear cells. In words: Test 4: cytokine release from LPS-stimulated mononuclear cells, IL-6. The settings on record: Homo sapiens, 5 hours incubation, read-out: Test 4 residual activity (IL-6 release), percent of control. As for the experimental part:
Test 4. Stimulation of the cytokine release
Isolation of mononuclear cells from human blood
10 ml of human blood, stabilized with 1 ml of 3.8% sodium citrate solution, were diluted with 10 ml of PM16 (Serva, Heidelberg) and underlaid with 15 ml of Lymphoprep (Dr. Molter GmbH, Heidelberg). The samples were centrifuged, at room temperature for 40 minutes, at 400×g (1600 rpm, Minifuge 2, Heraeus, Osterode). The mononuclear cells are visible as a white ring at the Lymphoprep/plasma interface. This ring was carefully removed with a syringe, diluted with an equal volume of PM16, and centrifuged for 10 minutes at 400×g. […] After the cells had been resuspended in approximately 1 ml of RPMI1640 (+300 mg/l L-glutamine+25 mM HEPES+100 μg/ml streptomycin+100 μg/ml penicillin), the cell density was determined using a Coulter Counter JT (Coulter Diagnostics) and adjusted to 5*10^6 /ml. […]
230 μl of mononuclear cells were incubated, at 37° C.; 5% CO2 for 20-22 hours (5 hours in the case of IL-6), with 10 μl of test substance (10 μM in DMSO/water, 1/10) and 10 μl of lipopolysaccharide (LPS; 500 μg dissolved in 1 ml of DMSO and diluted 1/10 with water prior to beginning the test; from Salmonella abortus equi, Sigma, Deisenhofen). […] Aliquots of the supernatant are measured with an ELISA (Biermann, Bad Nauheim). […]

On to `CC(C)(C)c1cc(C2=NOC(c3ccccn3)C2)cc(C(C)(C)C)c1O` (stereo not shown) [Example 9], for which the activity at 100 µM in assay [1] was determined as 64%. In assay [2], the activity at 1 µM amounted to 59% and the activity at 10 µM was found to be 0%. The activity at 10 µM in assay [3] (10 μM) was found to be 93%.

As for `CC(O)c1cc(-c2cc(C(C)(C)C)c(O)c(C(C)(C)C)c2)no1` (stereo not shown) [Example 28], the activity at 1 µM stood at 97% in assay [1] and 14% in assay [2]. For the same compound, the activity at 10 µM in assay [1] was 59%; in assay [2] it was 0%.

In the case of `CCOC(=O)CNC(=O)OCCCc1cc(-c2cc(C(C)(C)C)c(O)c(C(C)(C)C)c2)no1` [Example 41, N-(3-(4-Hydroxy-3,5-di-tert-butylphenyl)isoxazol-5-ylpropoxycarbonyl)glycine ethyl ester], the activity at 100 µM in assay [1] was determined as 78%. For the same compound, the activity at 10 µM in assay [2] came out at 13%.

In the case of `CC(C)(C)c1cc(-c2cc(CNS(=O)(=O)C(F)(F)F)on2)cc(C(C)(C)C)c1O` [Example 49, N-(3-(4-Hydroxy-3,5-di-tert-butylphenyl)isoxazol-5-ylmethyl)trifluoromethanesulfonamide], the activity at 1 µM turned out to be 88% in assay [1], 90% in assay [2] and 91% in assay [3] (1 μM). Besides, the results for the activity at 10 µM in assay [1] and in assay [2] were 23% and 0%, respectively. Also, the activity at 100 µM in assay [1] is 19%.

As to `CC(C)(C)c1cc(C2CC(CCC(=O)O)=NO2)cc(C(C)(C)C)c1O` (stereo not shown) [Example 63, 5-(4-Hydroxy-3,5-di-tert-butylphenyl)-2-isoxazolin-3-ylpropionic acid], in assay [1], the activity at 10 µM was found to be 88% and the activity at 100 µM worked out at 66%. In addition, the activity at 10 µM in assay [2] came out at 91%.

These data come from patent US5814627A, “3, 5-disubstituted and 3, 4, 5-trisubstituted 2-isoxazolines and isoxazoles, process for their preparation and their use as pharmaceuticals” (Hoechst Aktienegesellschaft, priority 1994, dated 1998).
